Reference: PMC11181322, “Copper(II) Complexes with Isomeric Morpholine-Substituted 2-Formylpyridine Thiosemicarbazone Hybrids as Potential Anticancer Drugs Inhibiting Both Ribonucleotide Reductase and Tubulin Polymerization: The Morpholine Position Matters” (Journal of Medicinal Chemistry, 2024)

What was measured:
[1] = Conditional stability constants of the copper(II) complexes by EDTA displacement (UV–vis); assay type: physicochemical; conditions: for logK′5.9 (DMSO/H2O) / logK′5.9 (H2O): EDTA displacement, UV–vis, 25 °C; for logK′5.9 (DMSO/H2O): pH 5.9, 30% (v/v) DMSO/H2O; for logK′5.9 (H2O): pH 5.9, water, I = 0.1 M (KCl); for pCu5.9 (=–log[Cu(II)]): calcd. at pH 5.9, cL = cCu(II) = 1 μM
Procedure: The stability constants of 3–6 were determined by EDTA competition experiments monitored by UV–vis spectrophotometry at pH 5.9, where the [Cu(HL)]^+ species is dominant. Since the displacement of the TSC ligand by EDTA is relatively slow, a 2 h reaction time was used to reach equilibrium. Upon increasing the concentration of EDTA, the absorbance of the characteristic S → Cu charge transfer band at 400–416 nm decreased (see, for example, Figure 3 for the copper(II)–H2L^4 (1:1) system).[68] The experiments were performed in both aqueous solution and the 30% (v/v) DMSO/H2O solvent mixture. The determined conditional (apparent) formation constants (log K′5.9) are rather similar (see Table 2) in both media. However, the values are lower in the DMSO/H2O solvent mixture than in aqueous solution, presumably due to coordination of DMSO to copper(II). An analogous observation was reported for the copper(II) complex of Triapine.[67] […] To compare the copper(II) binding ability of the studied TSCs H2L^3–H2L^6 at pH 5.9 (at which the conditional constants were determined), pCu (−log [Cu(II)]) values were also computed using the experimentally determined equilibrium constants (Table 2). The higher pCu value indicates a stronger metal ion binding ability of the ligand under given circumstances. The ligands form complexes with fairly similar stability, in agreement with the conditional stability constants. […] A similar behavior was reported for aqueous solutions of the N-terminally dimethylated derivative of the 2-pyridinecarboxaldehyde TSC (PTSC)[69] and for the corresponding morpholine-hybrid Morph-dm-FTSC.[52] In particular, the calculated pCu values were also very close, 13.17 for PTSC vs 13.08 for Morph-dm-FTSC calculated at pH 7.4.
The path length was 1 cm.

purified tubulin = experiment: Inhibition of polymerization of purified tubulin; assay type: biochemical; conditions: read-out: inhibition of tubulin IC50 ± SD
[2] = Redox reaction of the copper(II) complexes with GSH (UV–vis, anoxic); assay type: physicochemical; conditions: pH 7.4 (50 mM HEPES); ccomplex = 25 μM; cGSH = 1.25 mM; pure water; 25 °C
Excerpt: The direct reduction of the copper(II) complexes with the antioxidant GSH was investigated in anoxic aqueous solution at pH 7.4 by UV–vis spectrophotometry. At this pH, the complex [Cu(HL)]^+ is assumed to predominate according to the speciation studies (vide supra). The spectral changes were monitored in the wavelength range 250–550 nm by using a large excess of GSH (50 equiv). In this wavelength range, the spectral changes are due to the absorption of the metal complex and the ligand.
These changes imply that, after reduction in the presence of excess GSH, the generated copper(I) complex is not stable and liberates the free TSC ligand. […] The time-dependent absorbance changes are shown for all the studied systems in Figure 4b. The observed rate constants (kobs) were calculated (Table 2) as a semiquantitative description of the reaction kinetics. […] The obtained kobs values fall into the range for Triapine (0.10 min^–1), 2-pyridinecarboxaldehyde TSC (0.041 min^–1), and N-monomethylated N-methyl-Triapine (0.077 min^–1), measured under similar conditions.[67] To find out whether this slightly different kinetics for 6 and 3–5 is in accordance with their reduction potentials, cyclic voltammetry was performed.
The redox reaction of the copper(II) complexes with GSH and ascorbic acid was studied at 25.0 ± 0.1 °C on a Hewlett-Packard 8452A diode array spectrophotometer using a special, tightly closed tandem cuvette (Hellma Tandem Cell, 238-QS). The reactants were separated until the reaction was triggered. Both isolated pockets of the cuvette were completely deoxygenated by bubbling a stream of Ar for 10 min before mixing the reactants. Spectra were recorded before and then immediately after the mixing, and changes were followed until no further absorbance change was observed. One of the isolated pockets contained the reducing agent, and the other contained the complex. Their final concentrations were 1250 and 25 μM, respectively. The pH of all the solutions was adjusted to 7.40 by 50 mM HEPES buffer. The ionic strength of the solution was 0.1 M (KCl). The stock solutions of the reducing agents and the complexes were freshly prepared every day. During the calculations, the absorbance (A) – time (t) curves were fitted and analyzed at the λmax of the complex. (A0 – Afinal) × e^(−a×t) + Afinal was the fitting equation used, where the A0, Afinal, and a parameters were refined and accepted at the minimal value of the weighted sum of squared residuals (difference between the measured and calculated absorbance values) at the given wavelength. Then, observed rate constants (kobs) of the redox reaction were obtained from the data points of the simulated absorbance–time curves as the slope of the ln(A/A0) vs time plots.

MES-SA cells = experiment: Fluorescent protein-based cytotoxicity assay, MES-SA; assay type: cell-based, human; conditions: 120 h; ± SD; n = 3
Excerpt: (§1) The cytotoxic activity of proligands H2L^3–H2L^6 and their copper(II) complexes 3–6 was investigated in the MES-SA (human uterine sarcoma) and in its MDR counterpart (MES-SA/Dx5) cell lines by a fluorescent protein-based assay.[73]
(§2) The human uterine sarcoma cell lines MES-SA and the doxorubicin selected MES-SA-Dx5 were obtained from ATCC (MES-SA: No. CRL-1976, MES-SA/Dx5: No. CRL-1977) and were used for the intracellular ROS generation studies. For cytotoxicity, we used the fluorescent cell lines MES-SA mCherry and MES-SA/Dx5 eGFP, which were created by lentiviral transductions of the respective genes.[73] The phenotype of the resistant cells was maintained by 500 nM doxorubicin treatment a week before use and was verified using cytotoxicity assays. Cells were cultivated at 37 °C, 5% CO2 in Dulbecco’s modified Eagle's Medium (DMEM, Sigma-Aldrich), supplemented with 10% fetal bovine serum, 5 mM glutamine, and 50 unit/mL penicillin and streptomycin (Thermo Fisher).
(§3) MES-SA mCherry and MES-SA/Dx5 eGFP cell suspensions were seeded after trypsinization at 2500 cells/20 μL density on 384-well plates, containing 20 μL of completed medium. The next day, serial dilution of the compounds was prepared and added in an additional 20 μL, with or without 0.4 μM Tariquidar. Liquid handling steps were performed by a Hamilton StarLet robot. […] The mean and standard deviation of the pIC50 values were calculated and converted to IC50 values.

MES-SA/Dx5 cells = experiment: Fluorescent protein-based cytotoxicity assay, MES-SA/Dx5; assay type: cell-based, human; conditions: for IC50: 120 h, ± SD, n = 3; for SR, selectivity ratio IC50 (MES-SA)/IC50 (MES-SA/Dx5): in the absence of TQ
Excerpt: as §1, §2, §3

Compound	logK′5.9 (DMSO/H2O) [1]	logK′5.9 (H2O) [1]	pCu5.9 (=–log[Cu(II)]) [1]	IC50 (purified tubulin)	kobs, redox reaction with GSH [2]	IC50 (MES-SA cells)	IC50 (MES-SA/Dx5 cells)	SR, selectivity ratio IC50 (MES-SA)/IC50 (MES-SA/Dx5) (MES-SA/Dx5 cells)
Cc1cc(NC(=NN=Cc2cc(CN3CCOCC3)ccn2)[S][Cu][Cl])cc(C)c1O [complex 4, [Cu(HL^4)Cl]·1.5H2O]	10.07 ± 0.01	13.35 ± 0.02	8.06	15 ± 1 µM	0.079 ± 0.019 min^–1	19.2 ± 1.7 µM	5.8 ± 0.1 µM	3.33
Cc1cc(NC(=NN=Cc2ccc(CN3CCOCC3)cn2)[S][Cu][Cl])cc(C)c1O [complex 5, [Cu(HL^5)Cl]·2.5H2O]	9.99 ± 0.01	13.39 ± 0.01	8.02	15 ± 0.4 µM	0.058 ± 0.010 min^–1	31 ± 6.2 µM	8.1 ± 2 µM	3.81
Cc1cc(NC(=NN=Cc2cccc(CN3CCOCC3)n2)[S][Cu][Cl])cc(C)c1O [complex 6, [Cu(HL^6)Cl]·H2O]	10.09 ± 0.04	13.73 ± 0.02	8.07	5 ± 0.3 µM	0.165 ± 0.011 min^–1	0.29 µM	1.4 ± 0.2 µM	0.21
